Assay results: patent US7647217B2, “Structure of the farnesoid X receptor ligand binding domain and methods of use therefor” (The Salk Institute for Biological Studies, priority 2002, dated 2010)

How the values were obtained:
[1] = system: IBABP mRNA in HT29-FXRFL cells; test: Northern blot of IBABP mRNA induction in HT29 stable cell lines; format: cell-based, human; settings: for induction of IBABP mRNA in control lines: HT29-BABE or HT29-FXR-AF2 cell lines; for concentration of maximal activation of the IBABP gene / induction of IBABP mRNA: HT29-FXRFL, overnight treatment
Protocol: 20 μg total RNA was isolated using Trizol (Invitrogen) and used for Northern blot analysis. cDNA probe for human IBABP was prepared and hybridized to the blot. Blots were normalized by β-actin expression.
HepG2 or HT29-derived cell lines were typically cultured in medium containing superstripped FBS for 24 hr before the addition of a ligand or DMSO (vehicle) for an additional 24-48 hr. Total RNA was isolated using TRIzol reagent and was resolved (10 μg/lane) on a 1% agarose, 2.2 M formaldehyde gel, transferred to a nylon membrane (Hybond N^+; Amersham Biosciences, Inc.), and cross-linked to the membrane with UV light.
cDNA probes were radiolabeled with [α-^32P]dCTP using the highprime labeling kit (Amersham Biosciences, Inc.). Membranes were hybridized using the QuikHyb hybridization solution (Stratagene, La Jolla, Calif.) according to the manufacturer's protocol. Blots were normalized for variations of RNA loading by hybridization to a control probe, either, 18 S ribosomal cDNA, or the ribosomal protein 36B4. The RNA levels were quantitated using a PhosphorImager (ImageQuant software; Molecular Dynamics, Inc., Sunnyvale, Calif.) in addition to being exposed to X-ray film.
Human colon cells HT29 (FXR null until differentiated) were infected with retroviral vectors that expressed either FXR constructs and the puromycin-resistant gene or the puromycin-resistant gene alone. Puromycin resistant cells were isolated and pooled cell populations were propagated that harbored either the vector alone (HT29-BABE), overexpressed FXR full length (HT29-FXRFL), a non-functional FXR truncated at the AF2 region (HT29-FXR-AF2), or a constitutively active FXR that has the VP16 activation domain fused N-terminal of the protein (HT29-VP16-FXR). Confirmation of the successful establishment of the different stable cell lines was established via northern blot analysis of FXR message levels in the cells (see FIG. 4A). […]
The ability of the novel compounds identified herein to induce IBABP gene expression in this cell system was also examined. Total RNA from HT29 stable cells treated overnight with fexaramine, fexarine and fexarene was probed for IBABP gene expression (see FIG. 4D).

[2] = target: T1, mERR3 (Mus musculus, UniProt P62509); test: GAL4 chimeric NHR cross-reactivity assay; format: cell-based; settings: 10 μM
T1 construct: expressed in transfected cells; host or cells: CV-1 (monkey)
T1 sequence (P62509 233-457 limits assumed): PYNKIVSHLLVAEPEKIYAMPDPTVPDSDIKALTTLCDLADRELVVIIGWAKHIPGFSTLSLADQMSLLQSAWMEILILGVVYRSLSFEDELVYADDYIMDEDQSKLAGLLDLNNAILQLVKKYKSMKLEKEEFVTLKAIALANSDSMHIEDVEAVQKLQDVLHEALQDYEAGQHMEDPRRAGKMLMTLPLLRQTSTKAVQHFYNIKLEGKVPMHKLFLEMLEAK
Protocol: (§1) FIGS. 3A-3E collectively show the results of ligand activation of CV-1 cells co-transfected with a luciferase reporter gene with a variety of receptor expression constructs. […] FIGS. 3C-3E show the results of CV-1 cells transiently transfected with the indicated reporter constructs, treated with either DMSO or 10 μM of the compounds fexaramine (3C), fexarine (3D), fexarene (3E). Reporter activity was normalized to the internal control and the data plotted as fold activation relative to untreated cells. All transfections contained CMX-βgal as an internal control.
(§2) The expression plasmids pCMX, pCMX-LacZ, pCMX-mFXRFL, pCMX-hRXRFL, pCMX-GALDBD-rFXRLBD and other pCUX-GALDBD-NR LBDs (hRXRα, hPPARαγδ, mPXR, hPXR, hLXRα, HTRβ, hRARβ, mCAR, mERR3 and hVDR) have been described elsewhere (Blumberg et al. (1998). SXR, a novel steroid and xenobiotic-sensing nuclear receptor. Genes Dev. 12(20), 3195-205). The reporter plasmids pMH2004-TK-luc, pTKECRE*6-luc, pTKER-8*2-luc and pMRP-2-luc also have been described elsewhere. The hPLTP-luc promoter was kindly provided by Dr Dennis Dowhan and the hIBABP-luc promoter was created from a plasmid provided by Dr Philippe Besnard.
(§3) Cell-based transcriptional activation assays using chimeric nuclear hormone receptor (NHR) constructs were established to measure the selectivity of the compounds to FXR relative to other NHRs (Forman et al. (1995). Identification of a nuclear receptor that is activated by farnesol metabolites. Cell 81, 687-693). These assays used fusion proteins with the yeast GAL4 DNA binding domain connected to the ligand-binding domain (LBD) of NHRs. These constructs were co-transfected with a thymidine kinase C minimal promoter reporter vector containing four copies of the GAL4 binding site. Titration experiments were then performed using the identified compounds. […] Addition of RXR had no effect on the activation potential of fexaramine, fexarine, fexarene in this assay.
(§4) No activity was observed on other chimeric NHR constructs including hRXRα, hPPARαγδ, mPXR, hPXR, hLXRα, hTRβ, hRARβ, mCAR, mERR3 and hVDR (see FIGS. 3C-3E).

[3] = target: T2, hRXRα (Homo sapiens, UniProt P19793); test: GAL4 chimeric NHR cross-reactivity assay; format: cell-based; settings: 10 μM
T2 construct: expressed in transfected cells; host or cells: CV-1 (monkey)
T2 sequence (P19793 227-458 limits assumed): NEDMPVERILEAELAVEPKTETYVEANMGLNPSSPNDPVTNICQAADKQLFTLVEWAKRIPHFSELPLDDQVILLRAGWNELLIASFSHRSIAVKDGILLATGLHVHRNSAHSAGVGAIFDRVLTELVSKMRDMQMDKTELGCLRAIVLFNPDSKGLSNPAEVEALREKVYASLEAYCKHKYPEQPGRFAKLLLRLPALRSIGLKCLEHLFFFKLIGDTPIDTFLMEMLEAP
Protocol: as §1, §2, §3, §4

[4] = target: T3, mPXR (Mus musculus, UniProt O54915); test: GAL4 chimeric NHR cross-reactivity assay; format: cell-based; settings: 10 μM
T3 construct: expressed in transfected cells; host or cells: CV-1 (monkey)
T3 sequence (O54915 143-430 limits assumed): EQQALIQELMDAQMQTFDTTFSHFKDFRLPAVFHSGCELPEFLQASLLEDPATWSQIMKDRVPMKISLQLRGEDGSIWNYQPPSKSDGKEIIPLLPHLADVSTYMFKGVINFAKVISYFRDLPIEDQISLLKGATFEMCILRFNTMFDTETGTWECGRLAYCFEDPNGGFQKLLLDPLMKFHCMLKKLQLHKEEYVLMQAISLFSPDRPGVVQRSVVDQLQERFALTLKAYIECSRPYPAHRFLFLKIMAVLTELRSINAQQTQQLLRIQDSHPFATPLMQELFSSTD
Protocol: as §1, §2, §3, §4

| SMILES | induction of IBABP mRNA in control lines [1] | concentration of maximal activation of the IBABP gene [1] | induction of IBABP mRNA [1] | activity on chimeric mERR3 construct [2] | activity on chimeric hRXRα construct [3] | activity on chimeric mPXR construct [4] |
| --- | --- | --- | --- | --- | --- | --- |
| CC(C)c1onc(-c2c(Cl)cccc2Cl)c1COc1ccc(/C=C/c2cccc(C(=O)O)c2)c(Cl)c1 [GW4064, reference compound] | No induction | 1 µM | robust concentration dependent induction |  |  |  |
| COC(=O)/C=C/c1cccc(N(Cc2ccc(-c3ccc4c(c3)OCO4)cc2)C(=O)C2CCCCC2)c1 [fexarine] | No induction | 1 µM | induced expression of the IBABP mRNA | No activity | No activity | No activity |
| COC(=O)/C=C/c1cccc(N(Cc2ccc(-c3ccc(N(C)C)cc3)cc2)C(=O)C2CCCCC2)c1 [fexaramine] | No induction | 1 µM | induced expression of the IBABP mRNA | No activity | No activity | No activity |
| COC(=O)/C=C/c1cccc(N(Cc2ccc(/C=C/c3ccccc3)cc2)C(=O)C2CCCCC2)c1 [fexarene] | No induction | 1 µM | induced expression of the IBABP mRNA | No activity | No activity | No activity |
